Test results as given in PubChem BioAssay AID248 (DTP/NCI, 2004).
Where “and” joins values, the source holds several entries; their conditions need not be identical. Identical values can stand only once. Inconclusive results and toxic doses are left out.

Tested on: L1210 leukemia ip in BDF1 mice, survival T/C
Assay: NCI In Vivo Anticancer Drug Screen. Data for tumor model L1210 Leukemia (intraperitoneal) in B6D2F1 (BDF1) mice
Settings: endpoint: mean survival time, higher = longer survival
In short: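 Value reflects the ratio of survival in compound-treated mice to survival in vehicle-treated controls, with both groups carrying the same transplanted tumor.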

[1] = dose: 100.0 mg/kg/injection, schedule: Q01DX009 (ip), vehicle: saline with Tween-80
[2] = dose: 100.0 mg/kg/injection, schedule: Q04DX003 (ip), vehicle: saline with Tween-80
[3] = dose: 200.0 mg/kg/injection, schedule: Q01DX009 (ip), vehicle: saline with Tween-80
[4] = dose: 200.0 mg/kg/injection, schedule: Q04DX003 (ip), vehicle: saline with Tween-80
[5] = dose: 400.0 mg/kg/injection, schedule: Q01DX009 (ip), vehicle: saline with Tween-80
[6] = dose: 400.0 mg/kg/injection, schedule: Q04DX003 (ip), vehicle: saline with Tween-80
[7] = dose: 50.0 mg/kg/injection, schedule: Q01DX009 (ip), vehicle: saline with Tween-80
[8] = dose: 100.0 mg/kg/injection, schedule: Q04DX002 (ip), vehicle: saline with Tween-80
[9] = dose: 100.0 mg/kg/injection, schedule: Q01DX001 (ip), vehicle: saline
[10] = dose: 200.0 mg/kg/injection, schedule: Q01DX001 (ip), vehicle: saline
[11] = dose: 400.0 mg/kg/injection, schedule: Q01DX001 (ip), vehicle: saline
[12] = dose: 200.0 mg/kg/injection, schedule: Q04DX002 (ip), vehicle: saline with Tween-80
[13] = dose: 400.0 mg/kg/injection, schedule: Q04DX002 (ip), vehicle: saline with Tween-80

N#Cc1c(F)c(F)c(C#N)c(F)c1F
T/C (dose: 1.25 mg/kg/injection, schedule: Q01DX009 (ip), vehicle: Klucel (hydroxypropylcellulose) (HPC)): 97 % of control | T/C (dose: 2.5 mg/kg/injection, schedule: Q01DX009 (ip), vehicle: Klucel (hydroxypropylcellulose) (HPC)): 95 % of control | T/C (dose: 5.0 mg/kg/injection, schedule: Q01DX001 (ip), vehicle: saline): 98 % of control | T/C (dose: 5.0 mg/kg/injection, schedule: Q01DX009 (ip), vehicle: Klucel (hydroxypropylcellulose) (HPC)): 103 % of control | T/C (dose: 10.0 mg/kg/injection, schedule: Q01DX001 (ip), vehicle: saline): 102 % of control | T/C (dose: 10.0 mg/kg/injection, schedule: Q01DX009 (ip), vehicle: Klucel (hydroxypropylcellulose) (HPC)): 104 % of control

CCCCS(=O)CC(O)(c1ccccc1)c1ccccc1 (configuration not stated)
T/C (dose: 100.0 mg/kg/injection, schedule: Q03DX002 (ip), vehicle: saline with Tween-80): 102 % of control | T/C (dose: 200.0 mg/kg/injection, schedule: Q03DX002 (ip), vehicle: saline with Tween-80): 105 % of control

CC(c1ccccc1O)C1CCCCC1N=O (configuration not stated)
T/C (dose: 100.0 mg/kg/injection, schedule: Q04DX002 (ip), vehicle: Klucel (hydroxypropylcellulose) (HPC)): 105 % of control | T/C (dose: 200.0 mg/kg/injection, schedule: Q04DX002 (ip), vehicle: Klucel (hydroxypropylcellulose) (HPC)): 102 % of control | T/C (dose: 400.0 mg/kg/injection, schedule: Q04DX002 (ip), vehicle: Klucel (hydroxypropylcellulose) (HPC)): 98 % of control

O=C(O)CNC(=O)Nc1ccccc1
T/C [1]: 97 % of control | T/C [2]: 100 % of control | T/C [3]: 95 % of control | T/C [4]: 96 % of control | T/C [5]: 91 % of control | T/C [6]: 97 % of control

CCCC#CC(=O)OCCCCCC
T/C (dose: 100.0 mg/kg/injection, schedule: Q04DX002 (ip), vehicle: saline): 96 % of control | T/C (dose: 200.0 mg/kg/injection, schedule: Q04DX002 (ip), vehicle: saline): 111 % of control | T/C (dose: 400.0 mg/kg/injection, schedule: Q04DX002 (ip), vehicle: saline): 103 % of control

CNC(C)(C)C(SS)c1ccc(Cl)cc1 (configuration not stated)
T/C (dose: 25.0 mg/kg/injection, schedule: Q01DX009 (ip), vehicle: saline with Tween-80): 92 % of control | T/C (dose: 25.0 mg/kg/injection, schedule: Q04DX003 (ip), vehicle: saline with Tween-80): 102 % of control | T/C [7]: 98 % of control | T/C (dose: 50.0 mg/kg/injection, schedule: Q04DX003 (ip), vehicle: saline with Tween-80): 96 % of control | T/C (dose: 75.0 mg/kg/injection, schedule: Q01DX009 (ip), vehicle: saline with Tween-80): 94 % of control | T/C [2]: 98 % of control

Cc1c([N+](=O)[O-])cc(C(C)(C)C)c(OS(C)(=O)=O)c1[N+](=O)[O-]
T/C (dose: 25.0 mg/kg/injection, schedule: Q04DX002 (ip), vehicle: saline with Tween-80): 92 % of control | T/C (dose: 50.0 mg/kg/injection, schedule: Q04DX002 (ip), vehicle: saline with Tween-80): 99 % of control | T/C [8]: 96 % of control

OB(Cc1ccccc1)c1ccccc1
T/C [9]: 97 % of control | T/C [10]: 89 % of control | T/C [11]: 97 % of control

CC(=O)Nc1ccc(OCCOC(=O)Nc2c(C)cccc2C)cc1
T/C [1]: 87 % of control | T/C [3]: 92 % of control | T/C [5]: 94 % of control

N#CCCNc1cccc(Cl)c1
T/C (dose: 100.0 mg/kg/injection, schedule: Q04DX003 (ip), vehicle: Klucel (hydroxypropylcellulose) (HPC)): 94 % of control | T/C (dose: 200.0 mg/kg/injection, schedule: Q04DX003 (ip), vehicle: Klucel (hydroxypropylcellulose) (HPC)): 109 % of control | T/C (dose: 400.0 mg/kg/injection, schedule: Q04DX003 (ip), vehicle: Klucel (hydroxypropylcellulose) (HPC)): 96 % of control

COc1ccc(OP(=O)(N2CC2)N2CC2)cc1
T/C (dose: 75.0 mg/kg/injection, schedule: Q01DX Z (ip), vehicle: carboxymethylcellulose (CMC)): 120 % of control | T/C (dose: 300.0 mg/kg/injection, schedule: Q01DX Z (ip), vehicle: carboxymethylcellulose (CMC)): 160 % of control

N#CCCN(CCC#N)/N=N\c1nc[nH]c1C(N)=O
T/C (dose: 50.0 mg/kg/injection, schedule: Q01DX001 (ip), vehicle: water): 104 % of control | T/C (dose: 50.0 mg/kg/injection, schedule: Q04DX003 (ip), vehicle: water): 98 % of control | T/C (dose: 100.0 mg/kg/injection, schedule: Q01DX001 (ip), vehicle: other): 104 % of control | T/C (dose: 100.0 mg/kg/injection, schedule: Q01DX001 (ip), vehicle: water): 97 % of control | T/C (dose: 100.0 mg/kg/injection, schedule: Q01DX009 (ip), vehicle: other): 101 % of control | T/C (dose: 100.0 mg/kg/injection, schedule: Q04DX003 (ip), vehicle: other): 104 % of control | T/C (dose: 100.0 mg/kg/injection, schedule: Q04DX003 (ip), vehicle: water): 100 % of control | T/C (dose: 200.0 mg/kg/injection, schedule: Q01DX001 (ip), vehicle: other): 102 % of control | T/C (dose: 200.0 mg/kg/injection, schedule: Q01DX001 (ip), vehicle: water): 96 % of control | T/C (dose: 200.0 mg/kg/injection, schedule: Q01DX009 (ip), vehicle: other): 95 % of control | T/C (dose: 200.0 mg/kg/injection, schedule: Q04DX003 (ip), vehicle: other): 105 % of control | T/C (dose: 200.0 mg/kg/injection, schedule: Q04DX003 (ip), vehicle: water): 102 % of control | T/C (dose: 400.0 mg/kg/injection, schedule: Q01DX001 (ip), vehicle: other): 102 % of control | T/C (dose: 400.0 mg/kg/injection, schedule: Q01DX001 (ip), vehicle: water): 101 % of control | T/C (dose: 400.0 mg/kg/injection, schedule: Q01DX009 (ip), vehicle: other): 93 % of control | T/C (dose: 400.0 mg/kg/injection, schedule: Q04DX003 (ip), vehicle: other): 98 % of control | T/C (dose: 400.0 mg/kg/injection, schedule: Q04DX003 (ip), vehicle: water): 97 % of control

Cc1c(Cl)cccc1NC(=O)Nc1cccc(O)c1
T/C [1]: 104 % of control and 89 % of control | T/C [8]: 97 % of control and 100 % of control | T/C [2]: 101 % of control | T/C [3]: 95 % of control and 97 % of control | T/C [12]: 93 % of control and 89 % of control | T/C [4]: 100 % of control | T/C [5]: 93 % of control and 90 % of control | T/C [13]: 93 % of control and 94 % of control | T/C [6]: 97 % of control

O=C1CC(C(=O)O)C(C(=O)O)C1 (configuration not stated)
T/C [9]: 91 % of control | T/C [10]: 91 % of control

COC(=O)C(Cc1[nH]c(N=Nc2ccc(Br)cc2)nc1N=Nc1ccc(Br)cc1)NC(=O)c1ccccc1 (configuration not stated)
T/C (dose: 100.0 mg/kg/injection, schedule: Q01DX001 (ip), vehicle: saline with Tween-80): 86 % of control | T/C (dose: 200.0 mg/kg/injection, schedule: Q01DX001 (ip), vehicle: saline with Tween-80): 93 % of control | T/C (dose: 400.0 mg/kg/injection, schedule: Q01DX001 (ip), vehicle: saline with Tween-80): 90 % of control

O=NN(Cc1cnc2[nH]c(=O)[nH]c(=O)c2n1)c1ccc(C(=O)NC(CCC(=O)O)C(=O)O)cc1 (configuration not stated)
T/C (dose: 3.13 mg/kg/injection, schedule: Q01DX009 (ip), vehicle: water): 100 % of control | T/C (dose: 6.25 mg/kg/injection, schedule: Q01DX009 (ip), vehicle: water): 102 % of control | T/C (dose: 12.5 mg/kg/injection, schedule: Q01DX009 (ip), vehicle: water): 88 % of control | T/C (dose: 25.0 mg/kg/injection, schedule: Q01DX009 (ip), vehicle: water): 98 % of control | T/C (dose: 50.0 mg/kg/injection, schedule: Q01DX009 (ip), vehicle: water): 93 % of control

C[Si](C)(CCCOCC1CO1)O[Si](C)(C)CCCOCC1CO1 (configuration not stated)
T/C [1]: 97 % of control | T/C [2]: 95 % of control | T/C [3]: 97 % of control | T/C [4]: 89 % of control | T/C [5]: 92 % of control | T/C [6]: 87 % of control

O=C(O)CCCCCCC(=O)OCC(=O)c1ccc(-c2ccccc2)cc1
T/C [9]: 94 % of control | T/C [10]: 91 % of control | T/C [11]: 91 % of control

CCOC(=O)C(C(=O)OCC)C1CCCC(=O)C1 (configuration not stated)
T/C [7]: 92 % of control | T/C [1]: 96 % of control | T/C [3]: 92 % of control

CCO/C(=C\C(=O)c1ccccc1)c1ccccc1
T/C (dose: 50.0 mg/kg/injection, schedule: Q01DX009 (ip), vehicle: saline sonified): 92 % of control | T/C (dose: 100.0 mg/kg/injection, schedule: Q01DX009 (ip), vehicle: saline sonified): 95 % of control | T/C (dose: 200.0 mg/kg/injection, schedule: Q01DX009 (ip), vehicle: saline sonified): 94 % of control

Cc1ccc(C(=O)c2ccccc2C(=O)O)cc1C
T/C [1]: 90 % of control | T/C [8]: 93 % of control | T/C [3]: 93 % of control | T/C [12]: 114 % of control | T/C [5]: 87 % of control | T/C [13]: 101 % of control
